“And” between values parts separate entries of the source, which are not always exact repeats. Equal entries are not always repeated. Inconclusive results and toxic doses are left out. The calls were made as follows: active = survival T/C of 150% or more; inactive = T/C below 125% in these data.
System: P388 leukemia ip, CD2F1 mice, survival T/C
Assay: NCI In Vivo Anticancer Drug Screen. Data for tumor model P388 Leukemia (intraperitoneal) in CD2F1 (CDF1) mice
Conditions: endpoint: median survival time, higher = longer survival
Summary of the method: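 Mice carrying the transplanted tumor received test compound or vehicle. Survival was recorded in each group, and the value is the treated-group measurement divided by that of the vehicle-treated control group.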

[1] = dose: 60.0 mg/kg/injection, schedule: Q01DX005 (ip), vehicle: Klucel (hydroxypropylcellulose) (HPC)
[2] = dose: 120.0 mg/kg/injection, schedule: Q01DX005 (ip), vehicle: Klucel (hydroxypropylcellulose) (HPC)
[3] = dose: 60.0 mg/kg/injection, schedule: Q01DX005 (ip), vehicle: saline with Tween-80
[4] = dose: 120.0 mg/kg/injection, schedule: Q01DX005 (ip), vehicle: saline with Tween-80
[5] = dose: 240.0 mg/kg/injection, schedule: Q01DX005 (ip), vehicle: saline with Tween-80
[6] = dose: 100.0 mg/kg/injection, schedule: Q01DX009 (ip), vehicle: saline with Tween-80

Measured: T/C

CCC(c1ccc(OC)cc1)C(NC(=S)Nc1ccc(Cl)cc1)c1ccc(OC)cc1 (stereo unspecified)
inactive: dose: 100.0 mg/kg/injection, schedule: Q01DX001 (ip), vehicle: saline with Tween-80 90 % of control | dose: 200.0 mg/kg/injection, schedule: Q01DX001 (ip), vehicle: saline with Tween-80 90 % of control | dose: 400.0 mg/kg/injection, schedule: Q01DX001 (ip), vehicle: saline with Tween-80 109 % of control

Cc1n[nH]c(=O)n(/N=C/c2ccc(N(C)C)cc2)c1=O
inactive: [1] 98 % of control | [2] 97 % of control

C=C(C)c1nn(-c2ccccc2)c2c1C(=O)CC(C)O2 (stereo unspecified)
inactive: [3] 98 % of control | [4] 100 % of control | [5] 98 % of control

CC(C)(C)OC(=O)NCC(=O)ON1C(=O)CCC1=O
inactive: dose: 50.0 mg/kg/injection, schedule: Q01DX009 (ip), vehicle: saline with Tween-80 118 % of control | [6] 102 % of control

CCOC(=O)c1cnn(C)c1N
inactive: dose: 66.7 mg/kg/injection, schedule: Q01DX009 (ip), vehicle: saline with Tween-80 97 % of control | [6] 110 % of control | dose: 150.0 mg/kg/injection, schedule: Q01DX009 (ip), vehicle: saline with Tween-80 105 % of control

COC(=O)C(NC(N)=O)SC (stereo unspecified)
inactive: dose: 50.0 mg/kg/injection, schedule: Q04DX003 (ip), vehicle: saline with Tween-80 96 % of control | dose: 100.0 mg/kg/injection, schedule: Q04DX003 (ip), vehicle: saline with Tween-80 100 % of control | dose: 200.0 mg/kg/injection, schedule: Q04DX003 (ip), vehicle: saline with Tween-80 99 % of control

O=C1c2cc3c(cc2C(=O)c2[nH]c(=O)ccc21)CCCC3
inactive: dose: 50.0 mg/kg/injection, schedule: Q01DX005 (ip), vehicle: saline with Tween-80 100 % of control | dose: 100.0 mg/kg/injection, schedule: Q01DX005 (ip), vehicle: saline with Tween-80 88 % of control | dose: 200.0 mg/kg/injection, schedule: Q01DX005 (ip), vehicle: saline with Tween-80 101 % of control

O=C(NCCNC(=O)c1cc(Cl)cc(Cl)c1O)c1cc(Cl)cc(Cl)c1O
inactive: dose: 15.0 mg/kg/injection, schedule: Q01DX005 (ip), vehicle: saline with Tween-80 92 % of control | dose: 30.0 mg/kg/injection, schedule: Q01DX005 (ip), vehicle: saline with Tween-80 92 % of control | [3] 87 % of control and 89 % of control

CCOC(=O)C1CC(=O)c2ccccc2C1 (stereo unspecified)
inactive: dose: 6.25 mg/kg/injection, schedule: Q01DX009 (ip), vehicle: distilled water + Tween-80 101 % of control | dose: 12.5 mg/kg/injection, schedule: Q01DX009 (ip), vehicle: distilled water + Tween-80 96 % of control | dose: 25.0 mg/kg/injection, schedule: Q01DX009 (ip), vehicle: distilled water + Tween-80 95 % of control | dose: 50.0 mg/kg/injection, schedule: Q01DX009 (ip), vehicle: distilled water + Tween-80 102 % of control | dose: 100.0 mg/kg/injection, schedule: Q01DX009 (ip), vehicle: distilled water + Tween-80 100 % of control | dose: 200.0 mg/kg/injection, schedule: Q01DX009 (ip), vehicle: distilled water + Tween-80 101 % of control | dose: 400.0 mg/kg/injection, schedule: Q01DX009 (ip), vehicle: distilled water + Tween-80 109 % of control

O=C(NCCN1CCN2Cc3[nH]c4ccccc4c3CC2C1)c1ccc(Cl)cc1 (stereo unspecified)
inactive: dose: 60.0 mg/kg/injection, schedule: Q01DX005 (ip), vehicle: saline 102 % of control | dose: 120.0 mg/kg/injection, schedule: Q01DX005 (ip), vehicle: saline 97 % of control | dose: 240.0 mg/kg/injection, schedule: Q01DX005 (ip), vehicle: saline 90 % of control

CSC1=NC=C(C#N)C2=NC(c3cccs3)NN12 (stereo unspecified)
inactive: [3] 118 % of control | [4] 99 % of control | [5] 96 % of control

COC(=O)C1=C(C(=O)OC)C2C=CC1C1C(OC(C)=O)C(OC(C)=O)C21 (stereo unspecified)
inactive: dose: 50.0 mg/kg/injection, schedule: Q01DX009 (ip), vehicle: Klucel (hydroxypropylcellulose) (HPC) 100 % of control | dose: 100.0 mg/kg/injection, schedule: Q01DX009 (ip), vehicle: Klucel (hydroxypropylcellulose) (HPC) 100 % of control | dose: 200.0 mg/kg/injection, schedule: Q01DX009 (ip), vehicle: Klucel (hydroxypropylcellulose) (HPC) 107 % of control

CC(=O)CCC1=C(O)C(C)=C(C)C(=O)C1=O
inactive: [1] 103 % of control | [2] 115 % of control | dose: 240.0 mg/kg/injection, schedule: Q01DX005 (ip), vehicle: Klucel (hydroxypropylcellulose) (HPC) 109 % of control

From PubChem BioAssay AID330 (DTP/NCI, 2004)
